Laboratory results reported in ChEMBL document CHEMBL5465560, “Selectivity Literature for EUbOPEN Chemogenomic Library” (2024).
Values belong to the compound of their own block, whether it stands above or below them.

What was measured:
[1] = biological target: T1, SNF-related serine/threonine-protein kinase (Homo sapiens) (UniProt Q9NRH2); experiment: Selectivity interaction (ActivX KiNativ screen (kinase selectivity in THP-1 cell lysates)) EUB0000639a SNRK; type: subcellular; conditions: lysate, at 0.04 µM
T1 sequence (whole entry): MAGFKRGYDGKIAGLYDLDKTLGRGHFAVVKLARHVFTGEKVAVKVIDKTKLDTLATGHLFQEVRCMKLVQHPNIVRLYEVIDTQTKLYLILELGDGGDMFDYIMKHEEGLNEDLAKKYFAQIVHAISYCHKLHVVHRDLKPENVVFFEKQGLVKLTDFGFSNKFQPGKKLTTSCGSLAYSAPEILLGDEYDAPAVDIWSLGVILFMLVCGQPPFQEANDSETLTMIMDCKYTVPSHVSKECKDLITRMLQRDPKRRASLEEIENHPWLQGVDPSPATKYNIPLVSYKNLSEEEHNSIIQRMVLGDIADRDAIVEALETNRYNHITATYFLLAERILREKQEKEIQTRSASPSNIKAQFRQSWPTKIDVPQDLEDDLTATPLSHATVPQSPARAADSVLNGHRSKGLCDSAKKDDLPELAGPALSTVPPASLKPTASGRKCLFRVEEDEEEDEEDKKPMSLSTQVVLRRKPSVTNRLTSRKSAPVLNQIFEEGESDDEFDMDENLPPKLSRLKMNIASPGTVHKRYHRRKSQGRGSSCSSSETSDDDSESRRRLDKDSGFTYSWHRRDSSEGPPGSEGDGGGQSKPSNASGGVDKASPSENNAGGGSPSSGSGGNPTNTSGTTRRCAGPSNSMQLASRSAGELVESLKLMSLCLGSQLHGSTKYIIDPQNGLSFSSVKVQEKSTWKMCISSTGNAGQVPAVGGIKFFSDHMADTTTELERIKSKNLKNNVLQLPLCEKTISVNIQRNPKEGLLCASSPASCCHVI

[2] = biological target: Fibroblast growth factor receptor 2 (Homo sapiens) (UniProt P21802); experiment: Selectivity interaction (Kinase panel (Invitrogen)) EUB0000639a FGFR2; conditions: at 200 nM
[3] = biological target: Tyrosine-protein kinase receptor UFO (Homo sapiens) (UniProt P30530); experiment: Selectivity interaction (Kinase panel (Z-LYTE Assay)) EUB0001632a AXL; conditions: at 10 µM
[4] = biological target: LIM domain kinase 1 (Homo sapiens) (UniProt P53667); experiment: Selectivity interaction (LanthaScreen Eu Kinase Binding Assay) EUB0001632a LIMK1; conditions: at 10 µM
[5] = biological target: High affinity nerve growth factor receptor (Homo sapiens, UniProt P04629); experiment: Selectivity interaction (KinomeScan (DiscoverX)) EUB0000695a NTRK1; conditions: at 100 nM
[6] = biological target: Phosphatidylinositol 3-kinase catalytic subunit type 3 (Homo sapiens, UniProt Q8NEB9); experiment: Selectivity interaction (KinomeScan (DiscoverX)) EUB0000229b PIK3C3; conditions: at 10 µM
[7] = biological target: Protein kinase C alpha type (Homo sapiens, UniProt P17252); experiment: Selectivity interaction (ProQinase) EUB0000171b PRKCA
[8] = biological target: Bone morphogenetic protein receptor type-1A (Homo sapiens, UniProt P36894); experiment: Selectivity interaction (KinomeScan (DiscoverX)) EUB0000092b BMPR1A; conditions: at 10 µM
[9] = biological target: T2, Mitogen-activated protein kinase kinase kinase kinase 2 (Homo sapiens) (UniProt Q12851); experiment: Selectivity interaction (KinomeScan (DiscoverX)) EUB0000092b MAP4K2; conditions: at 10 µM
T2 sequence (whole entry): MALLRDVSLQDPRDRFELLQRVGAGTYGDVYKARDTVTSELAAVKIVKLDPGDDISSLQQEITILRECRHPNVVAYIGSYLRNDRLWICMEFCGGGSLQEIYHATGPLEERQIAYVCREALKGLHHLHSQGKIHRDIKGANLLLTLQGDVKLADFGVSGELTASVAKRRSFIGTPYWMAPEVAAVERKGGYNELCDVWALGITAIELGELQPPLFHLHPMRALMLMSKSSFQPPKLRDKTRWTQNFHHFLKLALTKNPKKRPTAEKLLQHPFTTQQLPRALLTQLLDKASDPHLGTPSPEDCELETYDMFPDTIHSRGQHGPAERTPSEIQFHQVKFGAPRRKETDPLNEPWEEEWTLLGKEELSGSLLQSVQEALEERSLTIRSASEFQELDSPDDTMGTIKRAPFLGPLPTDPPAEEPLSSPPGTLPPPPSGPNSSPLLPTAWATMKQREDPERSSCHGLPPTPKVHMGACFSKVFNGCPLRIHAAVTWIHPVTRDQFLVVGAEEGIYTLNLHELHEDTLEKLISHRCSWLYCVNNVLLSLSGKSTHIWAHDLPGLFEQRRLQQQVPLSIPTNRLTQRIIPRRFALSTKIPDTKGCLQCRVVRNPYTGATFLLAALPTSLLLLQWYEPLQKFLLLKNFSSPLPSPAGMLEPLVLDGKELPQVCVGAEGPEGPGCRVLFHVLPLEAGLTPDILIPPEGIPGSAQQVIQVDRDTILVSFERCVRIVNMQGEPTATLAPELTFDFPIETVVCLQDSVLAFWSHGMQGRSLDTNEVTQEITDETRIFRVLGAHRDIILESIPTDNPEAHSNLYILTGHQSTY

[10] = biological target: Ribosomal protein S6 kinase alpha-1 (Homo sapiens, UniProt Q15418); experiment: Selectivity interaction (ActivX KiNativ screen (ex vivo kinase selectivity in human PBMCs)) EUB0001619a RPS6KA1; type: cell-based; conditions: PBMC, at 1 µM
[11] = biological target: Mitogen-activated protein kinase 9 (Homo sapiens, UniProt P45984); experiment: Selectivity interaction (ActivX KiNativ screen (ex vivo kinase selectivity in human PBMCs)) EUB0001619a MAPK9; type: cell-based; conditions: PBMC, at 1 µM
[12] = biological target: T3, Serine/threonine-protein kinase STK11 (Homo sapiens) (UniProt Q15831); experiment: Selectivity interaction (KinomeScan (DiscoverX)) EUB0001619a STK11; conditions: at 1 µM
T3 sequence (whole entry): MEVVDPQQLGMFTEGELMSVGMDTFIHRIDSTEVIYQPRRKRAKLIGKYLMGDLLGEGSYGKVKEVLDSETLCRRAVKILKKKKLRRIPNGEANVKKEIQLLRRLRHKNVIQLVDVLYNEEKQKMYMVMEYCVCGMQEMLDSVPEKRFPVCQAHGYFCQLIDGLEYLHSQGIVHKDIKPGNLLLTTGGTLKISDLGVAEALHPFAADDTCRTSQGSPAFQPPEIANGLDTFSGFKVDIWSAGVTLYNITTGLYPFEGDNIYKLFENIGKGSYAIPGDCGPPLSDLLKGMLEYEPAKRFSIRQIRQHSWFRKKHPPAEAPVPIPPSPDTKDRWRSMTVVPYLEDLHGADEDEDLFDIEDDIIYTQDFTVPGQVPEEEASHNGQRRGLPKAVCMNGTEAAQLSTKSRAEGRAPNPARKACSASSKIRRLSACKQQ

[13] = biological target: Cyclin-dependent kinase-like 1 (Homo sapiens) (UniProt Q00532); experiment: Selectivity interaction (Kinase panel (DSF assay)) EUB0001559a CDKL1
[14] = biological target: Calcium/calmodulin-dependent protein kinase type 1D (Homo sapiens) (UniProt Q8IU85); experiment: Selectivity interaction (KinomeScan (DiscoverX)) EUB0000607a CAMK1D; conditions: at 10 µM
Chain of Calcium/calmodulin-dependent protein kinase type 1D (Homo sapiens) (Q8IU85 whole entry, looked up): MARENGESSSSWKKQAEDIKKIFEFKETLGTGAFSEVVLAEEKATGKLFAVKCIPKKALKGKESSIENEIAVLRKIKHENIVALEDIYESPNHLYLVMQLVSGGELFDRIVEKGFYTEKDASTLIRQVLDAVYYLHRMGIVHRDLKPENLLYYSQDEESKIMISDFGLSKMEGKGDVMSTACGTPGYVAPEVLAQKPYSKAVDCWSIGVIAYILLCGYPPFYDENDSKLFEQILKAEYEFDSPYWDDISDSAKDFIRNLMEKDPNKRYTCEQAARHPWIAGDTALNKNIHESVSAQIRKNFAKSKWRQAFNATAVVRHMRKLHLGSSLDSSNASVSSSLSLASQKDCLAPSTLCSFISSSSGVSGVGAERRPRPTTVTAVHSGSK

Chain of Ribosomal protein S6 kinase alpha-1 (Q15418 whole entry): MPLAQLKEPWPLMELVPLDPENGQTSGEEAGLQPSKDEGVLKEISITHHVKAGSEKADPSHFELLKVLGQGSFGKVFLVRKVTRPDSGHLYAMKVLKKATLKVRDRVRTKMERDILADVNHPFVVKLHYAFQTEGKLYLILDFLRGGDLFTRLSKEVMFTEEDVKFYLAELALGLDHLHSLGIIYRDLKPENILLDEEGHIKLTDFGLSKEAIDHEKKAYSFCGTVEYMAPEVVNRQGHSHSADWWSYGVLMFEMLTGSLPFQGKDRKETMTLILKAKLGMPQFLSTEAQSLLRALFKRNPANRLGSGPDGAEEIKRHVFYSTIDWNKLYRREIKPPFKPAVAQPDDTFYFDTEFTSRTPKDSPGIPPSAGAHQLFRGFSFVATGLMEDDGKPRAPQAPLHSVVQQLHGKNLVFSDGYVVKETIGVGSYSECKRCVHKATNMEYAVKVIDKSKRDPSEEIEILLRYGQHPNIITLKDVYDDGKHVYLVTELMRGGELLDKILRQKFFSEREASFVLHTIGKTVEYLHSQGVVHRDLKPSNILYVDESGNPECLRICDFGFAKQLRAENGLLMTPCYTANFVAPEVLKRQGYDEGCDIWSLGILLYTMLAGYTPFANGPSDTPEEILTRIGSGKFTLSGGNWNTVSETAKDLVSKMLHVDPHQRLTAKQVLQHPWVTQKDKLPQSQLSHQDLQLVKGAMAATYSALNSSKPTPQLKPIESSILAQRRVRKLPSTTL
Chain of Tyrosine-protein kinase receptor UFO (Homo sapiens) (P30530 whole entry, the tested form may be a part): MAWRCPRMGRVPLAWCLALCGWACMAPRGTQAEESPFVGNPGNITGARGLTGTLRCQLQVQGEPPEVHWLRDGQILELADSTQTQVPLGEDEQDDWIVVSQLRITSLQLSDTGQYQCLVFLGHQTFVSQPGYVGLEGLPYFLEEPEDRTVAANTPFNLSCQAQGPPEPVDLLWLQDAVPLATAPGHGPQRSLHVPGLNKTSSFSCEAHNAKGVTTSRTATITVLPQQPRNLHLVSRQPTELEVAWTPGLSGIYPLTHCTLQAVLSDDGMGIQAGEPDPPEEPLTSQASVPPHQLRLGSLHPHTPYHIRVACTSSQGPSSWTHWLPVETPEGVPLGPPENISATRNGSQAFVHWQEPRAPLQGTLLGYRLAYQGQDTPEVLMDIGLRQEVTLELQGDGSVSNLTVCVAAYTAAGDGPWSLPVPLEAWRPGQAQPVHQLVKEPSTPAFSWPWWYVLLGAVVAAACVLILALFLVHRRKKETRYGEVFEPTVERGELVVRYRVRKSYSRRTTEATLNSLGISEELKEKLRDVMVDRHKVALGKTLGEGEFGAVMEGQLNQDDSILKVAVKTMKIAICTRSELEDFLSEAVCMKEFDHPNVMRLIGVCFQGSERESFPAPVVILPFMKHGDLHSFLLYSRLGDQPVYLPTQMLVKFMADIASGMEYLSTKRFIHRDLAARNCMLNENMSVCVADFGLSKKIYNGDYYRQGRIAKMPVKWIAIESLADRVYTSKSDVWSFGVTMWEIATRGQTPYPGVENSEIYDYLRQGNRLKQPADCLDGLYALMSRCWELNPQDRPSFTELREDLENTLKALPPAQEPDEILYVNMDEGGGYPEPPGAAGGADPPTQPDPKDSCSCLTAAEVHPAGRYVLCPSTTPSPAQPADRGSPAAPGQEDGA
Chain of Mitogen-activated protein kinase 9 (P45984 whole entry, looked up): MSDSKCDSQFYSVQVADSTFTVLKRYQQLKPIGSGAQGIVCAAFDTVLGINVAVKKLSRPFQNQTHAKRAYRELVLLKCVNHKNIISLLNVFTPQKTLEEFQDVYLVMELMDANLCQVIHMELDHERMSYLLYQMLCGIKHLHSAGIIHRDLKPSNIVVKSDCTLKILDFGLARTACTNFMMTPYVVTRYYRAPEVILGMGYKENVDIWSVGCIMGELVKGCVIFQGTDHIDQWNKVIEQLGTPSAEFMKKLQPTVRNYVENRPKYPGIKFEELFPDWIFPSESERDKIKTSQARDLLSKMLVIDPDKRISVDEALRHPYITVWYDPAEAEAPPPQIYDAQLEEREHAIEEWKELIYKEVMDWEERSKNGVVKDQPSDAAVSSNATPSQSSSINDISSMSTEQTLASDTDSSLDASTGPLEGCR
Chain of Cyclin-dependent kinase-like 1 (Homo sapiens) (Q00532 whole entry): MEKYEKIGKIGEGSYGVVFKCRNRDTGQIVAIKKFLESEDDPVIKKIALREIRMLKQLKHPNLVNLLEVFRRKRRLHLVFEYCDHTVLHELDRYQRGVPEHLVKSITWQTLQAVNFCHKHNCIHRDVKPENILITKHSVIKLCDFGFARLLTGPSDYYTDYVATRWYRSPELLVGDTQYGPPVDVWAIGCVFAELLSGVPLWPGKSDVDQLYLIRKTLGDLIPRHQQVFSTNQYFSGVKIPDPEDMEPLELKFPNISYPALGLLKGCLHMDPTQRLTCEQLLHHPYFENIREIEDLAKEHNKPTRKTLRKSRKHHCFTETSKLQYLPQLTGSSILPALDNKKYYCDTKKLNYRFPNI
Chain of Phosphatidylinositol 3-kinase catalytic subunit type 3 (Q8NEB9 whole entry): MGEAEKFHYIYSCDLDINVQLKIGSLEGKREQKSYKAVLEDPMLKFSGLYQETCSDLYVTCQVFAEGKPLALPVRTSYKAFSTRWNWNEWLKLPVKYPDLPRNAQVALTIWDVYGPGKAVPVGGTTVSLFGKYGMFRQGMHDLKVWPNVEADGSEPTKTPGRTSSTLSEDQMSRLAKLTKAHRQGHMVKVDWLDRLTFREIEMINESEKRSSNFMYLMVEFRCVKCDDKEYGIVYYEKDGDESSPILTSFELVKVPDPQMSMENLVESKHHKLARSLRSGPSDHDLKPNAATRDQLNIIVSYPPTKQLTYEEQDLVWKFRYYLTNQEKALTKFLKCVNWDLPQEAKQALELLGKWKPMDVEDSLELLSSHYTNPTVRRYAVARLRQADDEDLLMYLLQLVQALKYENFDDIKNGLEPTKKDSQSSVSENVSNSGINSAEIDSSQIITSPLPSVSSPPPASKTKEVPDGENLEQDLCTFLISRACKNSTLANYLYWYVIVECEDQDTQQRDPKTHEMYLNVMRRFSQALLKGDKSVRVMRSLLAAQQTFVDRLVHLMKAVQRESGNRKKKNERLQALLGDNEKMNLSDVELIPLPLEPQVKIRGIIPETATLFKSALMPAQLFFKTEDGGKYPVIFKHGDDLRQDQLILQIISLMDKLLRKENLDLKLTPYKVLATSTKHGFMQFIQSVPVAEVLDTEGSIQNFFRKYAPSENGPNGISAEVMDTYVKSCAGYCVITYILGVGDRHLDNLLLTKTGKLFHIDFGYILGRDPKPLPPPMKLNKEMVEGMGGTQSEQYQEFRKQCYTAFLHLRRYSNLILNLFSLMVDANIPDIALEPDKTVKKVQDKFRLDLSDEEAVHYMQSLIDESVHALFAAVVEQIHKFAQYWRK
Chain of LIM domain kinase 1 (Homo sapiens) (P53667 whole entry, looked up, the tested form may be a part): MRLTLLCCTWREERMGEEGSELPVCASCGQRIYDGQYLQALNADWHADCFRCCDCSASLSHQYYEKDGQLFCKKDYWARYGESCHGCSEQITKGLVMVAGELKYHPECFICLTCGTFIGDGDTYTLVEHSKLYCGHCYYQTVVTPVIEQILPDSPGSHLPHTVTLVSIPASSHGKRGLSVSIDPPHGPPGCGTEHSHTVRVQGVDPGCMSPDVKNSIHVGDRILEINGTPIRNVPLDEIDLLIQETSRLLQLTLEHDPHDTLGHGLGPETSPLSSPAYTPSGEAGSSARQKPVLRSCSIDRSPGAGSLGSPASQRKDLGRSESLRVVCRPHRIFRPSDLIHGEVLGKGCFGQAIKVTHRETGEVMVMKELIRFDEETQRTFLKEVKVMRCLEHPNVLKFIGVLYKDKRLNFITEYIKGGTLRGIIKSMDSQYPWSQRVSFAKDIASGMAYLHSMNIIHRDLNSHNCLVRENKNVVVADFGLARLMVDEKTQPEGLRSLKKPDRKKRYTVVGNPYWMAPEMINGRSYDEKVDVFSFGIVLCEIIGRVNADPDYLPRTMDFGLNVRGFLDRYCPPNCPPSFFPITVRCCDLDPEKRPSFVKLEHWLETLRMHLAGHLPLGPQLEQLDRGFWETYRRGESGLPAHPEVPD

% of inhibition [1]: 9.5%
% of inhibition [2]: -3.82%
SMILES: CC[C@@H]1[C@H](F)C(=O)N[C@@H]1COc1nccc2cc(C(N)=O)c(OC)cc12 [ZIMLOVISERTIB]

% of control [3]: 2.06%
% of inhibition [4]: -36.5%
SMILES: Cn1cc(-n2cnc3c(NCc4nc5cc(Cl)c(Cl)cc5[nH]4)nc(N4CCOCC4)nc32)cn1

SMILES: Cc1cc(F)c(C(=O)Nc2cccc(-c3nncn3C(C)C)n2)cc1-n1cnc(C2CC2)c1
% of control [5]: 79%

SMILES: COc1cc(N(C)c2ccnc3ccc(C(F)(F)F)cc23)cc(OC)c1OC
% binding [6]: 93%

% of control ([7]; at 1 µM): 102%
% of control ([7]; at 5 µM): 80%
SMILES: C=CC(=O)Nc1cccc(C(=O)Nc2ccc(Nc3cc(-c4[nH]c(SC)nc4C)ccn3)cc2)c1

SMILES: CCC(=O)N1CCN(c2ccc(-n3c(=O)ccc4cnc5ccc(-c6cnc7ccccc7c6)cc5c43)cc2C(F)(F)F)CC1
% of control [8]: 45%
% of control [9]: 35%

SMILES: N#Cc1cccc(-c2c[nH]c3ncnc(N4CCOCC4)c23)c1
% of inhibition [10]: -1%
% of inhibition [11]: 5%
% of control [12]: 100%

dTM [13]: 1.2 K
SMILES: CN(C(=O)c1cnn2cccnc12)c1cc2c(cc1N1CCOCC1)C(=O)N(C[C@@H](F)C(C)(C)O)C2

SMILES: CNC(=O)Nc1ccc(-c2nc(N3CC4CCC(C3)O4)c3cnn(C4CCC5(CC4)OCCO5)c3n2)cc1
% of control [14]: 95%
